Results as given in patent US10864251B2, “Peptides of syndecan-1 for inhibiting angiogenesis” (Wisconsin Alumni Research Foundation, priority 2006, dated 2020).

Tests used:
Assay type in all cases: cell-based
[1] = system: human dermal microvascular endothelial cells (HMEC-1); conditions: HMEC-1, truncated peptides compared to SSTN82-130, FIG. 14
Procedure: FIGS. 6A-6H—Inhibition of B82L fibroblast and HMEC-1 cell attachment and spreading on VN by synstatin82-130. B82L fibroblasts, which rely on the αvβ5 integrin for attachment to VN, and human dermal microvascular endothelial cells, which rely on both the αvβ3 and αvβ5 integrins for attachment to VN, were plated in the absence of peptide (FIGS. 6A, 6E) or in the presence of 0.1 (FIGS. 6B, 6F), 0.3 (FIGS. 6C, 6G) or 1 μM (FIGS. 6D, 6H) synstatin82-130 for 2 hr and processed as described in FIG. 2.
FIGS. 10A-10D—Dependence of HMEC cell attachment and spreading on integrin activation by Sdc1 and its inhibition by SSTN. (FIG. 10A) HMECs were plated for 2 hr either on Sdc1-specific antibody B-B4 to engage Sdc1 or on VN (10 μg/ml coating concentration) to engage the αvβ3 and αvβ5 integrins. Blocking antibodies LM609 (10 μg/ml, specific for αvβ3) and P1F6 (10 μg/ml, specific for αvβ5), SSTN (0.5 μM) or recombinant mouse Sdc1 ectodomain (mS1ED, 5 μM) were added. The ligand mimetic antibody WOW1 was used to detect activated αvβ3 integrin on cells plated on B-B4. (FIG. 10B) HMECs were treated with siRNA oligo specific for human Sdc1 for 48 hr prior to plating on VN. Sdc1 expression was quantified by flow cytometry using human Sdc1-specific mAb B-B4 or a control mouse IgG. (FIG. 10C-10D) The percentage of cell attaching or attaching and spreading was quantified for HMECs, HAEC and MAECs plated on VN for 24 hr in the presence of mS1ED or SSTN, or after siRNA silencing of Sdc1 expression in the presence of mAb LM609 to block αvβ3 integrin, P1F6 to block αvβ5 integrin, or both antibodies.
FIG. 14—Activity of SSTN peptides. A diagram of SSTN82-130 used in our experiments is shown. The gray letters designate amino acids that are identical or highly conserved across species (mouse, human, rat, hamster). Shorter peptides have been tested using HMEC-1 endothelial cells for inhibition of […] mediated cell attachment and spreading in comparison to SSTN82-130.
(§1) Cell adhesion and spreading assays were performed with modification to the previous procedures (Lebakken and Rapraeger, 1996. Briefly, human plasma vitronectin or fibronectin at 10-30 μg/ml were applied to nitrocellulose-coated ten well slides (Erie Scientific) and incubated for 1-2 h at 37° C. Slides were blocked with 1.0% heat-denatured bovine serum albumin for a minimum of 30 min at 37° C. Cells were detached from the substratum using 5 mM EDTA in Tris-buffered saline and resuspended in HEPES-buffered culture medium containing 0.1% heat-denatured BSA. Cells were plated at a density of 15,000 cells per well and allowed to attach and spread for 2 h prior to fixation in 4% paraformaldehyde in CMF-PBS. For fluorescence microscopy, fixed cells were permeabilized in 0.2% Triton X-100, labeled with rhodamine-conjugated phalloidin and analyzed using fluorescence microscopy. For testing inhibition by recombinant mScd-1ED and synstatin82-130, cells were pre-incubated 10 min before plating in the presence of the inhibitor. […] LM609 was used as a specific block to αvβ3 and P1F6 was used as a specific blocker of αvβ5.
Finally, the inventors have examined HMEC-1 cells, which are immortalized human dermal microvascular endothelial cells. Microvascular endothelial cells are regarded as being the main source of endothelial cells that carry out angiogenesis in vivo. The HMEC-1 cells grown in serum-containing culture medium express Sdc1 (as noted earlier) and also express active αvβ3 and αvβ5 integrins. […]

[2] = system: MDA-MB-231 human mammary carcinoma cells; conditions: MDA-MB-231, 0.1-1.0 μM SSTN peptide, 2 hr
Procedure: (§2) FIGS. 5A-5F—Inhibition of MDA-MB-231 human mammary carcinoma cell attachment and spreading on VN by synstatin82-130. MDA-MB-231 human mammary carcinoma cells, which rely on the αvβ3 integrin for attachment and spreading on VN, were plated on 10 μg/ml VN for 2 hr in the absence of peptide (FIG. 5A) or in the presence of 0.1 (FIG. 5B), 0.3 (FIG. 5C) or 1 μM (FIG. 5D) synstatin82-130. The cells were fixed and stained as in FIG. 2.
(§3) FIG. 17—Human SSTN peptides inhibit αvβ3-mediated cell attachment and spreading on vitronectin. MDA-MB-231 human mammary carcinoma cells were allowed to attach and spread on either vitronectin (VN) or fibronectin (FN) during a 2 hr assay in the presence of 0, 0.1, 0.3, 0.5, 1.0 or 30 μM SSTN peptide. […] The two peptides tested are derived either from amino acids 88-121 (hSSTN 88-121) or 89-120 (hSSTN 89-120) of the human Sdc1 sequence. Adhesion to VN, but not FN, is mediated by the αvβ3 integrin on these cells and is disrupted by the human SSTN peptides.
as §1
The inventors have tested the adhesion and spreading of MDA-MB-231 mammary carcinoma cells on VN in the presence or absence of synstatin82-130. These cells rely specifically on the active αvβ3 integrin for this adhesion (Beauvais et al., 2004). Recombinant Sdc1 ectodomain (SLED) has been shown by the inventors previously to block spreading of these cells with an IC50 of about 3-10 μM (Beauvais et al., 2004). […] Thus, synstatin82-130 is a specific and effective inhibitor of αvβ3 integrin activation.

[3] = system: MDA-MB-231 human mammary carcinoma cells; test: Cell attachment and spreading on fibronectin (control ligand), MDA-MB-231 cells; conditions: MDA-MB-231, 30 μM, 100-fold greater than IC50
Procedure: as §2
as §3, with “peptides. […]” for “peptides.”

Substance | activity in cell attachment and spreading assays on VN [1] | attachment and spreading on VN [2] | attachment and spreading on fibronectin (FN) [3]
SSTN88-121: truncated mouse SSTN peptide, amino acids 88-121 (FTSVLPAGEKPEEGEPVLHVEAEPGFTARDKEKE; UniProt P18828 88-121, looked up, fragment) | active |  | 
hSSTN 88-121: human SSTN, amino acids 88-121 of the human Sdc1 sequence, SEQ ID NO:28 (ASTSTLPAGEGPKEGEAVVLPEVEPGLTAREQEA) |  | disrupted | lack of activity
hSSTN 89-120: human SSTN, amino acids 89-120 of the human Sdc1 sequence, SEQ ID NO:21 (STSTLPAGEGPKEGEAVVLPEVEPGLTAREQE) |  | disrupted | lack of activity
